Results on 86 compounds are retold here after a melting point compilation (Tetko et al.; mined from patent text by program, amines drawn as free bases though some values may be those of a salt).

Usually melting point stands for the temperature of the solid-liquid transition.

Compound `COc1cc(COc2ccc(N)nn2)cc(OC)c1OC` registered a melting point of 142 to 144 °C.

Take `COC(=O)c1sc2ccc(OCc3cccnc3)cc2c1Cl`: the melting point was in the range of 126 to 128 °C.

Regarding `CCCCC(Cc1ccc(OCCN(CC)CC)cc1)(C(=O)O)S(=O)(=O)c1ccc(OC)cc1` (stereo unspecified), the melting point was found to be 67 °C.

`O=c1nc(-c2ccccn2)sc2ccc(Cl)cc12`: the melting point was 269 to 270 °C.

Consider `CCC(=O)Nc1ncc(Sc2ccc(N)cc2)s1`, for which the melting point lay within 185 to 187 °C.

As for `CSc1nn2c(Cl)cc(CN3CCOCC3)nc2c1S(=O)(=O)c1ccccc1`, the melting point fell in the range of 174 to 176 °C.

`CCCCCCCCCC(=O)Nc1ccc(S(=O)(=O)Nc2nnc(C(=O)OCC)s2)cc1` came in with a melting point of 101 to 102 °C.

`CCOC(=O)C(CCCCCc1ccc(Cl)cc1)NS(C)(=O)=O` (stereo unspecified) registered a melting point of 60 to 62 °C.

In the case of `CC(=O)c1cccc(N=P(c2ccccc2)(c2ccccc2)c2ccccc2)c1`, the melting point lay in the range of 135 to 136 °C.

As to `CCOC(=O)CNC(=O)c1nc2ccc(NCCCN3CCC(OC(c4ccccc4)c4ccccc4)CC3)nn2n1`, the melting point was in the range of 175 to 177 °C.

`COc1cc(-c2oc3c(OC)cc(/C=C/CO)cc3c2C)ccc1O` showed a melting point of 180 to 183 °C.

On to `CNC(=S)C1=CC(CF)(CF)Oc2cc(Cl)c(Cl)cc21`, for which the melting point was 142 to 143 °C.

As for `CS(=O)(=O)c1cccc(-c2ccc3cnc(Nc4ccc(C5CCN(CC(N)=O)CC5)cc4)nn23)c1`, the melting point worked out at 254 °C.

`O=C1N[C@H]2OC(c3ccccc3)=N[C@@H]12`: the melting point stood at 159 °C.

In the case of `Clc1ccc2nc(NC3CCCCC3)n3nc(-c4ccco4)nc3c2c1`, the melting point is 158 to 160 °C.

Compound `O=C1c2ccccc2C(=O)N1CCSCCc1ccco1` returned a melting point of 53 to 55 °C.

Consider `Cc1cccc(C2CCN(C(=O)CCC(=O)c3ccc4c(c3)CCN(C(=O)C(F)(F)F)CC4)CC2)c1`, for which the melting point was 128 to 129 °C.

With `CCOC(=O)C(O)CCc1ccc(OCCc2nc(-c3ccccc3)oc2C)cc1` (stereo unspecified), the melting point was 67 to 68 °C.

In the case of `C[C@H]1CN(c2c(F)cc3c(=O)c(C(=O)O)cn(CCF)c3c2Cl)C[C@H]1NC(=O)OC(C)(C)C` (relative stereo), the melting point lay within 229 to 231 °C.

For `CC1(C)Oc2ccc(C#N)cc2[C@@H](N(C(N)=O)c2ccccc2)[C@@H]1O` (relative stereo), the melting point was in the range of 226 to 227 °C.

`CCOC(=O)C(C)(C)c1ccc(Br)c([N+](=O)[O-])c1` registered a melting point of 42 to 45 °C.

In turn, `Nc1cc(-n2nnn(CCCF)c2=O)c(F)cc1Cl` registered a melting point of 84 °C.

On to `Cc1cccc(COc2cccc(OCc3coc(C4CCCCC4)n3)c2)c1C(=O)O`, for which the melting point lay within 158 to 159 °C.

For the compound `Cc1nc(Oc2ccc(F)cc2)cc(Oc2ccc(F)cc2)n1`, the melting point fell in the range of 93 to 97 °C.

The compound `O=C1CN(c2ccccc2)C(=O)N1C(=O)c1ccccc1Cl` showed a melting point of 184 to 185 °C.

For `CC(C)(C)OC(=O)N[C@@H](CCC(=O)c1ccccc1)C(=O)OC(C)(C)C`, the melting point is 85 °C.

As to `COc1ccc(C(O)CNCCc2ccc(OC)c(OC)c2)cc1` (stereo unspecified), the melting point turned out to be 92 °C.

`OC1CCCc2nc3ccccc3c(NCc3cccc(C(F)(F)F)c3)c21` (stereo unspecified): the melting point was 154 to 155 °C.

With `Cc1onc(NS(=O)(=O)c2ccccc2-c2ccc(-c3ncccn3)cc2Cn2ccc(C(F)(F)F)n2)c1C`, the melting point was 108 to 114 °C.

For `CCCn1cnc2c1c(=O)n(CCCCCC(C)=O)c(=O)n2C`, the melting point was in the range of 69 to 70 °C.

Compound `O=C1OC(=O)C2CC3=C(CC3)CC12` (stereo unspecified) displayed a melting point of 81 to 83 °C.

Take `CC(=O)OCOC(c1ccccc1)n1cc(F)c(=O)[nH]c1=O` (stereo unspecified): the melting point was in the range of 108 to 109 °C.

In turn, `CCCCC1=Nc2ccccc2SN1Cc1ccc(-c2ccccc2C(=O)O)cc1` returned a melting point of 125 to 130 °C.

In turn, `Cc1cccc(C)c1N(Cc1ccon1)C(=O)CCl` displayed a melting point of 78 to 81 °C.

As to `Clc1cccc(Cl)c1C1=NC2(CO1)COC(c1ccccc1)OC2` (stereo unspecified), the melting point is 158 to 160 °C.

On to `COc1cc(C#CCO)cc2c(O)c(C(=O)NCc3ccc(Cl)cc3)cnc12`, for which the melting point is 207 to 208 °C.

Consider `O=C1c2ccccc2C(=O)N1CCCN1C(=O)C2(COc3cc4c(cc32)CCO4)c2ccccc21` (stereo unspecified), for which the melting point lay within 214 to 217 °C.

`CCOCc1nc2c(N)nc3cc(N4CCC4=O)ccc3c2n1CCCOC(C)C` showed a melting point of 185 to 186 °C.

For the compound `O=C(NC(=O)c1ccccc1Cl)C(=C1NCCCS1)[N+](=O)[O-]`, the melting point is 130 to 131 °C.

Compound `CCN(CC)c1ccc(S(=O)(=O)NCCCCC(=O)O)cc1` had a melting point of 106 to 108 °C.

On to `Cc1[nH]cc2c(=O)n(-c3ccc(Cl)cc3)nc-2c1-c1cccc(NS(C)(=O)=O)c1`, for which the melting point was in the range of 332 to 341 °C.

For `CC(=O)CCOc1c(-c2ccc(S(C)(=O)=O)cc2)cnn(-c2ccc(F)cc2)c1=O`, the melting point is 133 to 136 °C.

`CCCCOCCOc1ccc(-c2ccc3c(c2)C=C(C(=O)OC)CCN3C(=O)CNC(C)=O)cc1` yielded a melting point of 130 to 134 °C.

`CCOC(=O)c1cc(C)n(-c2cccc(Br)c2)c1-c1ccccc1` had a melting point of 118 to 119 °C.

Turning to `C=C(C)n1cc(C(=O)O)c(=O)c2cc(F)c(Cl)cc21`, the melting point was 229 °C.

As for `CN(Cc1cccc2c1C(=O)N(C1CCC(=O)NC1=O)C2=O)C(=O)Nc1cccc(Cl)c1` (stereo unspecified), the melting point lay in the range of 193 to 195 °C.

The compound `O=C(N[C@H](Cc1ccc(C(F)(F)F)cc1)[C@@H](O)c1cccc(F)c1)c1ccc(F)c2ccccc12` (racemic) showed a melting point of 200 to 201 °C.

The compound `O=C(CS(=O)(=O)c1ccccc1)OC1CCCCC1` yielded a melting point of 35 to 38 °C.

In turn, `CCN1c2ncc(CCc3cccc(C)c3)cc2C(=O)N(C)c2cccnc21` gave a melting point of 103 to 104 °C.

Consider `COc1ccc(C=CC(=O)CC(=O)C=Cc2ccc(OC)c(O)c2)cc1O`, for which the melting point fell in the range of 190 to 192 °C.

`Cc1cnc(COc2nn3c(-c4ccccc4)nnc3cc2-c2ccccc2)s1` gave a melting point of 182 °C.

Turning to `O=C(Nc1cc(Cl)ccc1O)c1cc(Cl)cc(Cl)c1`, the melting point is 251 to 252 °C.

Take `CNc1ccc(-c2cnc3[nH]c(=O)n(CC4CCOCC4)c3n2)cn1`: the melting point is greater than 260 °C.

As to `COc1ccc(C(=O)N2CCC(CCN3CCC(Nc4nc5ccccc5[nH]4)CC3)(c3ccccc3)C2)c(OC)c1OC` (stereo unspecified), the melting point lay within 112 to 119 °C.

`O=[N+]([O-])c1oc2c(ccc3ccccc32)c1-c1ccc(Br)cc1`: the melting point lay in the range of 230 to 233 °C.

For `Cc1nc2cc(-n3cccc3)ccc2o1`, the melting point lay within 115 to 121 °C.

In the case of `CCOC(=O)Cn1cc(C(=O)OCC)c(=O)c2ccccc(=O)c21`, the melting point fell in the range of 152 to 154 °C.

`O=C1NC(=O)C(=Cc2ccc3c(c2)CCC(Cc2ccc(OCc4ccccc4)cc2)O3)S1` (stereo unspecified): the melting point was in the range of 245 to 250 °C.

In turn, `CCCNC1=Nc2cccnc2N(CC)c2ncccc21` displayed a melting point of 114 to 116 °C.

`CNCCC1CN(c2c(F)cc3c(=O)c(C(=O)O)cn(C4CC4)c3c2F)CCO1` (stereo unspecified) came in with a melting point of 243 to 251 °C.

In turn, `CCOC(=O)/C=C/C1N(C(C)C)C(=O)c2ccccc2C1(O)c1ccc(F)cc1` (stereo unspecified) had a melting point of 220 to 221 °C.

With `CCOC(=O)c1c(CO)c(C)n(C)c1C`, the melting point is 184 to 186 °C.

As for `CC(C)n1cc(-c2nc(C#N)c(N)nc2-c2ccc(F)cc2)ccc1=O`, the melting point turned out to be 207 °C.

In the case of `CCOC(=O)C1=C(C)NC(=S)N(S(=O)(=O)c2ccccc2)C1c1cccc([N+](=O)[O-])c1` (stereo unspecified), the melting point was in the range of 162 to 164 °C.

As for `Nc1ccc(Oc2cc(F)c(C(F)(F)F)c(Cl)c2)cc1`, the melting point was 55 to 57 °C.

The compound `COc1ccc(-c2cccc(-c3ccc(OC)c(F)c3)n2)cc1F` registered a melting point of 108 °C.

As for `COc1cc2ncnc(NC3=CC(=O)C(N(C)c4ccccc4)=CC3=O)c2cc1OC`, the melting point lay within 204 to 206 °C.

Compound `COc1cc(Nc2c(C#N)cnc3sc(CCCCO)cc23)cc(OC)c1OC` displayed a melting point of 125 to 127 °C.

With `CCCCN1C(=O)NC(Cc2ccc(C=O)cc2)C1=O` (stereo unspecified), the melting point amounted to 160 °C.

Compound `Cn1cc(-c2ccccc2)c(=O)c(-c2ccccc2F)c1` registered a melting point of 165 °C.

Turning to `OC(Cn1cncn1)(Cn1cnc(C=Cc2ccc(OC(F)(F)F)cc2)n1)c1ccc(F)cc1F` (stereo unspecified), the melting point fell in the range of 149 to 151 °C.

`CC(C)(C)OC(=O)Nc1cccc(-c2nc(=O)o[nH]2)c1` came in with a melting point of 193 °C.

Consider `CCOC(=O)c1c(C(F)(F)F)nc(C(F)(F)F)c(C(=O)OCC)c1Br`, for which the melting point lay within 56 to 61 °C.

Take `NC(=O)/C=C1\CCc2c(F)cc(F)cc21`: the melting point is 178 to 180 °C.

In the case of `C=C(CC)C(=O)c1ccc(OC(C)C(=O)O)c(Cl)c1Cl` (stereo unspecified), the melting point is 115 to 119 °C.

The compound `CC#CCOc1ccc(S(=O)(=O)N2Cc3ccccc3N(C(=O)c3ccco3)CC2C(=O)OC)cc1` (stereo unspecified) yielded a melting point of 119 to 120 °C.

For `Cc1cccnc1-c1cccc(OC2SCC(O)C(O)C2O)c1` (stereo unspecified), the melting point was in the range of 97 to 109 °C.

Turning to `CCOCC(=O)N(c1c(C)c(C)cc2ccccc12)C(C)C(=O)OC` (stereo unspecified), the melting point fell in the range of 96 to 108 °C.

For `CCCCc1ccc(C=Nc2ccc(C#N)cc2)cc1`, the melting point was in the range of 38.1 to 38.7 °C.

`CCOc1cc(N)c(Cl)cc1C(=O)[NH+]([O-])CC1CN(Cc2ccccc2Cl)CCO1` (stereo unspecified): the melting point is 154 to 157 °C.

Take `NS(=O)(=O)c1cc2ccc(=O)[nH]c2s1`: the melting point is 306 to 308 °C.

In turn, `COc1cncnc1N1CCN(CCCc2c[nH]c3ccc([N+](=O)[O-])cc23)CC1` returned a melting point of 163 to 166 °C.

For `O=C(c1nc2ccc(O)cc2[nH]1)N1CCC(Cc2ccccc2)CC1`, the melting point stood at 186 °C.

`O=C(Nc1cc(C(F)(F)F)cc2ncn(-c3ccccc3)c12)c1ccccc1` registered a melting point of 152 to 155 °C.

In turn, `COc1cccc([C@H]2O[C@H](CC(=O)Nc3cc(CCCCC(=O)O)ccc3F)C(=O)N(CC(C)(C)CO)c3ccc(Cl)cc32)c1OC` displayed a melting point of 115 to 118 °C.

Regarding `COC(=O)C1=C(S(N)(=O)=O)CCC1`, the melting point is 83 to 84 °C.
